Test results published in publication PMC9694494, “Resveratrol/Hydrazone Hybrids: Synthesis and Chemopreventive Activity against Colorectal Cancer Cells” (Pharmaceutics, 2022).
Read-outs that look alike come from different tables or passages of the source.

Assays:
[1] = test system: CHO-K1 cells; experiment: SRB cell viability (cytotoxicity), CHO-K1; format: cell-based; conditions: Cricetulus griseus, CHO-K1 nonmalignant cells, read-out: IC50 ± SEM CHO
Description: (§1) Human colon cancer cell lines (SW480 and SW620), together with nonmalignant cells (CHO-K1 and HaCaT) were used to study the biological activity. Cells were purchased from the European Collection of Authenticated Cell Cultures (ECACC, UK). Dulbecco’s Modified Eagle Medium (DMEM) containing heat-inactivated (56 °C) horse serum (10%), non-essential amino acids (1%) and antibiotics (penicillin/streptomycin, 1%) (Gibco Invitrogen, Carlsbad, CA, USA) was used to maintain the cells, reducing the horse serum to 3%, and, adding insulin ([…]), transferrin ([…]) and selenium (5 ng/mL) (ITS-defined medium; Gibco, Invitrogen, Carlsbad, CA, USA) for all the experiments.
(§2) The colorimetric test with Sulforhodamine B (SRB) was used to evaluate cell viability. Cell density was adjusted to seed 20.000 cells/well in 96-well tissue culture plates. Cells were first incubated for 24 h and then treated with the synthesized hybrids, the lead compounds (PIH and resveratrol), and the reference drug (5-FU) (concentrations between 0.01 and 200 µM), using DMSO (below 1%) as vehicle control. The optimum conditions were 37 °C and 5% CO2. After the end of each treatment, cold trichloroacetic acid (MERCK, 50% v/v) was added and preserved for one hour at 4 °C, to fix the cells. Then, cell proteins were stained with 0.4% (w/v) SRB (Sigma-Aldrich, St. Louis, MO, USA), and subsequently washed with acetic acid (1%) to remove unbound SRB. After air-drying, protein-bound SRB was solubilized in 10 mM Tris-base before reading the absorbance at 492 nm in a microplate reader (Mindray MR-96A). All experiments were performed at least three times.

[2] = test system: SW480 cells; experiment: SRB cell viability (cytotoxicity), SW480; format: cell-based, human; conditions: for Selectivity Index SI1: CHO-K1/SW480 IC50 ratio; for Selectivity Index SI2: HaCaT/SW480 IC50 ratio; for IC50: Homo sapiens, SW480, SRB, read-out: IC50 ± SEM SW480
Description: as §1, §2

[3] = test system: HaCaT cells; experiment: SRB cell viability (cytotoxicity), HaCaT; format: cell-based; conditions: Homo sapiens, HaCaT nonmalignant cells, read-out: IC50 ± SEM HACAT
Description: as §1, §2

[4] = test system: SW620 cells; experiment: SRB cell viability (cytotoxicity), SW620; format: cell-based, human; conditions: for Selectivity Index SI3: CHO-K1/SW620 IC50 ratio; for Selectivity Index SI4: HaCaT/SW620 IC50 ratio; for IC50: Homo sapiens, SW-620, SRB, read-out: IC50 ± SEM SW620
Description: as §1, §2

[5] = test system: HCT 116 cell line; conditions: read-out: IC50 antiproliferative activity; cited from earlier work
[6] = test system: EC109 cells; set-up: method as in PMID 29475156; conditions: EC109 esophageal carcinoma cells; read-out: IC50 antiproliferative activity; cited from earlier work
[7] = test system: EC9706 cells; set-up: method as in PMID 29475156; conditions: EC9706 esophageal carcinoma cells; read-out: IC50 antiproliferative activity; cited from earlier work

Row | SMILES | IC50 ([1]; 24 H) [µM] | IC50 ([1]; 48 H) [µM] | Selectivity Index SI1 ([2]; 24 H) | Selectivity Index SI2 ([2]; 24 H) | Selectivity Index SI1 ([2]; 48 H) | Selectivity Index SI2 ([2]; 48 H) | IC50 ([2]; 24 H) [µM] | IC50 ([2]; 48 H) [µM] | melting point [°C] | IC50 ([3]; 24 H) [µM] | IC50 ([3]; 48 H) [µM] | Selectivity Index SI3 ([4]; 24 H) | Selectivity Index SI4 ([4]; 24 H) | Selectivity Index SI3 ([4]; 48 H) | Selectivity Index SI4 ([4]; 48 H) | IC50 ([4]; 24 H) [µM] | IC50 ([4]; 48 H) [µM] | IC50 [5] [µM] | IC50 [6] [µM] | IC50 [7] [µM]
1 | NC(=S)N/N=C/c1c(O)cc(O)cc1/C=C/c1ccc(O)cc1 [compound 8, 2-((E)-2,4-dihydroxy-6-((E)-4-hydroxystyryl)benzylidene)hydrazine-1-carbothioamide] | 41.9 ± 2.83 | 36.7 ± 3.8 | 1.02 | 1.47 | 0.89 | 0.77 | 41 ± 3.93 | 41.2 ± 2.3 | 242 to 244 | 60.1 ± 3.99 | 31.8 ± 1.4 | 0.41 | 0.59 | 0.57 | 0.50 | 102 ± 3.5 | 64.1 ± 2.9 | – | – | –
2 | O=c1[nH]cc(F)c(=O)[nH]1 [5-FU, 5-fluorouracil, reference compound] | – | – | 0.35 | – | 0.99 | 0.68 | – | – | – | > 1000 | – | 0.59 | – | 0.96 | 0.66 | – | – | 5 | – | –
3 | Oc1ccc(/C=C/c2cc(O)cc(O)c2)cc1 [RESV, resveratrol] | – | 64 ± 8.9 | 0.77 | 1.49 | 0.52 | 0.16 | – | – | – | > 200 | 20.2 ± 2.7 | 0.22 | 0.42 | 0.45 | 0.14 | > 200 | – | – | – | –
4 | Cc1ncc(CO)c(/C=N/NC(=O)c2ccncc2)c1O [PIH, pyridoxal isonicotinoyl hydrazone, reference compound] | > 200 | 75.3 ± 6.4 | 1.10 | 0.86 | 0.67 | 0.90 | > 200 | 112 ± 5.9 | – | > 200 | 101 ± 10.8 | 1.53 | 1.19 | 0.63 | 0.85 | > 200 | 119 ± 7 | – | – | –
5 | CCOc1cccc(/C=N/NC(=O)c2cccc(S(=O)(=O)N3CCOCC3)c2)c1O [I] | – | – | – | – | – | – | – | – | – | – | – | – | – | – | – | – | – | – | 2.79 ± 0.45 | 1.09 ± 0.03
6 | O=C(N/N=C/c1ccccc1OCc1ccccc1)c1ccncc1 [C] | – | – | – | – | – | – | – | – | – | – | – | – | – | – | – | – | – | 3.1 | – | –
7 | COc1ccc(C(=O)N/N=C/c2c(O)cc(O)cc2/C=C/c2ccc(O)cc2)cc1 [6b, N′-((E)-2,4-dihydroxy-6-((E)-4-hydroxystyryl)benzylidene)-4-methoxybenzohydrazide] | 23.4 ± 1.83 | 14.4 ± 1.7 | – | – | – | – | 36.1 ± 1.97 | 11.3 ± 2.3 | – | 36.9 ± 3.53 | 13.9 ± 0.7 | – | – | – | – | 160 ± 9.4 | 37.6 ± 2.9 | – | – | –
8 | COc1cc(OC)cc(C(=O)N/N=C/c2c(O)cc(O)cc2/C=C/c2ccc(O)cc2)c1 [6h, N′-((E)-2,4-dihydroxy-6-((E)-4-hydroxystyryl)benzylidene)-3,5-dimethoxybenzohydrazide] | 22.8 ± 1.31 | 14 ± 1.2 | – | – | – | – | 29.1 ± 1.31 | 7.2 ± 2 | – | 43.2 ± 4.02 | 4.5 ± 0.6 | – | – | – | – | 126 ± 20.9 | 26 ± 3.2 | – | – | –
9 | COc1cccc(C(=O)N/N=C/c2c(O)cc(O)cc2/C=C/c2ccc(O)cc2)c1OC [6d, N′-((E)-2,4-dihydroxy-6-((E)-4-hydroxystyryl)benzylidene)-2,3-dimethoxybenzohydrazide] | 35.5 ± 2.36 | 22.4 ± 2.7 | – | – | – | – | 34.8 ± 3.31 | 20.5 ± 1.9 | – | 49.7 ± 1.96 | 2.95 ± 0.2 | – | – | – | – | 171 ± 8.7 | 49.9 ± 2.1 | – | – | –
10 | O=C(N/N=C/c1c(O)ccc2ccccc12)c1ccncc1 [D] | – | – | – | – | – | – | – | – | – | – | – | – | – | – | – | – | – | 0.29 | – | –
11 | O=C(N/N=C/c1c(O)cc(O)cc1/C=C/c1ccc(O)cc1)c1ccc(F)cc1 [6c, N′-((E)-2,4-dihydroxy-6-((E)-4-hydroxystyryl)benzylidene)-4-fluorobenzohydrazide] | 22.6 ± 2.38 | 12 ± 1.6 | 0.77 | 1.12 | 1.11 | 1.35 | 29.2 ± 3.55 | 10.8 ± 2 | – | 32.8 ± 1.33 | 14.6 ± 0.8 | 0.39 | 0.57 | 0.96 | – | 57.7 ± 3.6 | 12.5 ± 1 | – | – | –
12 | COc1ccc(OC)c(C(=O)N/N=C/c2c(O)cc(O)cc2/C=C/c2ccc(O)cc2)c1 [6f, N′-((E)-2,4-dihydroxy-6-((E)-4-hydroxystyryl)benzylidene)-2,5-dimethoxybenzohydrazide] | 22.7 ± 2.25 | 15.9 ± 1.6 | 0.97 | 1.80 | 1.30 | 1.22 | 23.4 ± 1.31 | 12.2 ± 1.2 | 260 to 262 | 42.2 ± 5.9 | 14.9 ± 1.3 | 0.11 | 0.21 | 0.16 | 0.15 | > 200 | 99.4 ± 6.9 | – | – | –
13 | COc1ccc(C(=O)N/N=C/c2c(O)cc(O)cc2/C=C/c2ccc(O)cc2)cc1OC [6g, N′-((E)-2,4-dihydroxy-6-((E)-4-hydroxystyryl)benzylidene)-3,4-dimethoxybenzohydrazide] | 33.2 ± 1.99 | 17.2 ± 2 | – | – | – | – | 37 ± 2.24 | 20.2 ± 2.7 | – | 63.7 ± 5.27 | 17.7 ± 0.5 | – | – | – | – | 191 ± 13 | 40.3 ± 2.7 | – | – | –
14 | COc1cccc(C(=O)N/N=C/c2c(O)cc(O)cc2/C=C/c2ccc(O)cc2)c1 [6a, N′-((E)-2,4-dihydroxy-6-((E)-4-hydroxystyryl)benzylidene)-3-methoxybenzohydrazide] | 28.4 ± 1.48 | 13 ± 1.3 | 0.86 | 1.44 | 0.52 | 0.09 | 33 ± 2.13 | 24.9 ± 2.8 | 248 to 250 | 47.5 ± 1.15 | 2.2 ± 0.2 | 0.16 | 0.28 | 0.31 | 0.05 | 172 ± 9 | 41.5 ± 1.2 | – | – | –
